For 32 compounds, melting point and IC50 results are on record in US7094801B2, “Chalcone derivatives and their use to treat diseases” (Atherogenics, Inc., priority 2001, dated 2006).

The subject of one data set is VCAM-1. The data set can be described thus: In Vitro VCAM-1 Assay (TNF-α stimulated HAEC or HPAEC, cell ELISA). Format: cell-based, human. The settings on record: Homo sapiens, 16 h, TNF-α (1 ng/ml) stimulated HAEC or HPAEC, approximately 16 hours. A digest of the protocol: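 Primary human aortic or pulmonary endothelial cells (below passage 9) stimulated with TNF-α (1 ng/ml) plus compound (four concentrations, ≤0.25% DMSO) for about 16 h. Surface VCAM-1 detected by cell ELISA (HRP/TMB, OD 450 nm). IC50 taken as the concentration giving 50% inhibition of the TNF-α-only response.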
Background: ELISA stands for enzyme-linked immunosorbent assay.

Broadly, the melting point is the temperature of the solid-liquid transition. The term IC50 denotes the concentration needed to halve the response being measured. A higher IC50 goes with weaker potency in that assay. `COc1cc(OCCN2CCOCC2)c(/C=C/C(=O)c2ccc(S(N)(=O)=O)cc2)cc1-c1cccs1` [Example 81, 4-{3E-[4-Methoxy-2-(2-morpholin-4-yl-ethoxy)-5-thiophen-2-yl-phenyl]-acryloyl}-benzenesulfonamide] had a melting point of 186 to 188 °C. Also, in the data set with VCAM-1, the IC50 is less than 1 µM.
In turn, `COc1cc(OC)c(-c2cc3ccccc3n2C)cc1/C=C/C(=O)c1ccc(S(N)(=O)=O)cc1` [Example 117, 4-{3E-[2,4-Dimethoxy-5-(1-methyl-1H-indol-2-yl)-phenyl]-acryloyl}-benzenesulfonamide] displayed a melting point of 148 to 150 °C. The IC50 in the data set with VCAM-1 was less than 5 µM.
The compound `CSc1ccc(C(=O)/C=C/c2ccc(-c3cccs3)cc2)cc1` [Example 24, 1-(4-Methylthiophenyl)-3E-(4-thiophen-2-yl-phenyl)-propenone] came in with a melting point of 138 to 140 °C. In the data set on VCAM-1, the IC50 was more than 10 µM.
As for `COc1cc(OC(C)(C)C(=O)O)c(-c2cccs2)cc1/C=C/C(=O)c1ccc(C(=O)O)cc1` [Example 47, 4-{3E-[4-(1-Carboxy-1-methyl-ethoxy)-2-methoxy-5-thiophen-2-yl-phenyl]-acryloyl}-benzoic acid], the melting point lay in the range of 135 to 137 °C. In addition, in the data set with VCAM-1, the IC50 was more than 10 µM.
In the same order, the values of `COc1cc(OC)c(-c2cc3ccccc3s2)cc1/C=C/C(=O)c1ccc(N)cc1` [Example 13, 1-(4-Amino-phenyl)-3E-(5-benzo[b]thiophen-2-yl-2,4-dimethoxy-phenyl)-propenone] are 98 to 104 °C and less than 5 µM.
`COc1cc(OC(C)(C)C(=O)O)c(-c2cccs2)cc1/C=C/C(=O)c1ccc(NS(C)(=O)=O)cc1` [Example 100, 2-{4-[3-(4-Methanesulfonylamino-phenyl)-3-oxo-E-propenyl]-5-methoxy-2-thiophen-2-yl-phenoxy}-2-methyl-propionic acid] returned a melting point of 181 to 183 °C. In the data set with VCAM-1, the IC50 was more than 10 µM.
For `COc1cc(/C=C/C(=O)c2ccc3[nH]ccc3c2)cc(-c2cccs2)c1OC` [Example 27, 3E-(3,4-Dimethoxy-5-thiophen-2-yl-phenyl)-1-(1H-indol-5-yl)-propenone], the melting point lay within 184.5 to 186 °C. The IC50 with VCAM-1 was less than 5 µM.
`COc1ccc(-c2cccs2)cc1/C=C/C(=O)c1ccc(C(=O)O)cc1` [Example 45, 4-[3E-(2-Methoxy-5-thiophen-2-yl-phenyl)-acryloyl]-benzoic acid]: the melting point was in the range of 195 to 196 °C. The compound further had an IC50 in the data set on VCAM-1 of less than 5 µM.
In the same order, the values of `COCCOCCOc1cc(OC)c(/C=C/C(=O)c2ccc(C(=O)O)cc2)cc1-c1cccs1` [Example 49, 4-(3E-{2-Methoxy-4-[2-(2-methoxy-ethoxy)-ethoxy]-5-thiophen-2-yl-phenyl}-acryloyl)-benzoic acid] are 174 to 175 °C and less than 10 µM.
In turn, `CCOC(=O)CNC(=O)Nc1ccc(C(=O)/C=C/c2ccc(-c3cccs3)cc2)cc1` [Example 15, (3-{4-[3E-(4-Thiophen-2-yl-phenyl)-acryloyl]-phenyl}-ureido)-acetic acid ethyl ester] came in with a melting point of 209 to 212 °C. For the same compound, the IC50 in the data set with VCAM-1 was more than 10 µM.
In the same order, the values of `NS(=O)(=O)c1ccc(C(=O)/C=C/c2ccc(-c3cccs3)cc2)cc1` [Example 26, 4-[3E-(4-Thiophen-2-yl-phenyl)-acryloyl]-benzenesulfonamide] are more than 245 °C and more than 10 µM.
For the compound `COc1ncc(-c2cc(/C=C/C(=O)c3ccc(C(=O)O)cc3)c(OC)cc2OC)c(OC)n1` [Example 38, 4-{3E-[5-(2,4-Dimethoxy-pyrimidin-5-yl)-2,4-dimethoxy-phenyl]-acryloyl}-benzoic acid], the melting point was in the range of 203 to 205 °C. The IC50 in the data set with VCAM-1 was less than 10 µM.
On to `COc1cc(OC)c(-c2nc3ccccc3[nH]2)cc1/C=C/C(=O)c1ccc(C(=O)O)cc1.Cl` [Example 70, 4-{3E-[5-(1H-Benzoimidazol-2-yl)-2,4-dimethoxy-phenyl]-acryloyl}-benzoic acid], for which the melting point was > 240 °C (dec.). Further, the IC50 in the data set on VCAM-1 was less than 5 µM.
With `COc1cc(OC)c(-c2nn[nH]n2)cc1/C=C/C(=O)c1ccc(C(=O)O)cc1` [Example 75, 4-{3E-[2,4-Dimethoxy-5-(2H-tetrazol-5-yl)-phenyl]-acryloyl}-benzoic acid], the melting point was 218 °C (dec.). This compound returned an IC50 in the data set on VCAM-1 of more than 10 µM.
For the compound `COc1ccc(/C=C/C(=O)c2ccccc2C(=O)O)cc1-c1cccs1` [Example 48, 2-[3E-(4-Methoxy-3-thiophen-2-yl-phenyl)-acryloyl]-benzoic acid], the melting point is 79 to 81 °C. In the data set with VCAM-1, this compound came in with an IC50 of less than 10 µM.
In the same order, the values of `COc1cc(OC)c(-c2cc3ccccc3s2)cc1/C=C/C(=O)c1ccc(C(=O)NCC(F)(F)F)cc1` [Example 91, 4-[3E-(5-Benzo[b]thiophen-2-yl-2,4-dimethoxy-phenyl)-acryloyl]-N-(2,2,2-trifluoro-ethyl)-benzamide] are 215 to 217 °C and less than 5 µM.
In the same order, the values of `COc1cc(/C=C/C(=O)c2ccc(N)cc2)cc(-c2cccs2)c1OC` [Example 11, 1-(4-Amino-phenyl)-3E-(3,4-dimethoxy-5-thiophen-2-yl-phenyl)-propenone] are 67 to 71 °C and less than 5 µM.
Consider `COc1cc(OC)c(-c2nccs2)cc1/C=C/C(=O)c1ccc(C(=O)O)cc1` [Example 55, 4-[3E-(2,4-Dimethoxy-5-thiazol-2-yl-phenyl)-acryloyl]-benzoic acid], for which the melting point is more than 260 °C. Moreover, the IC50 in the data set on VCAM-1 was less than 5 µM.
As for `O=C(O)c1ccc(/C=C/C(=O)c2ccc(-c3cccs3)cc2)cc1` [Example 18, 4-[3-{4-(thien-2-yl)-phenyl}-3-oxo-E-propenyl]-benzoic acid], the melting point was 260 to 265 °C. In the data set on VCAM-1, the IC50 is less than 5 µM.
In the same order, the values of `COc1cc(-c2cccs2)cc(OC)c1/C=C/C(=O)c1ccc(C(=O)O)cc1` [Example 37, 4-[3E-(2,6-Dimethoxy-4-thiophen-2-yl-phenyl)-acryloyl]-benzoic acid] are 256 to 258 °C and more than 10 µM.
Consider `COc1cc(OC)c(/C=C/C(=O)c2ccc(C(=O)O)cc2)c(-c2cccs2)c1` [Example 39, 4-[3E-(2,4-Dimethoxy-6-thiophen-2-yl-phenyl)-acryloyl]-benzoic acid], for which the melting point was 231 °C (dec.). The IC50 in the data set with VCAM-1 is more than 10 µM.
`COc1cc(OCC(CO)CO)c(/C=C/C(=O)c2ccc(C(=O)O)cc2)cc1-c1cccs1` [Example 64, 4-{3E-[2-(3-Hydroxy-2-hydroxymethyl-propoxy)-4-methoxy-5-thiophen-2-yl-phenyl]-acryloyl}-benzoic acid] displayed a melting point of 219 to 220 °C. In the data set with VCAM-1, this compound had an IC50 of more than 10 µM.
As for `COc1cc(OC)c(-c2cccs2)cc1/C=C/C(=O)c1ccc(-c2nn[nH]n2)cc1` [Example 78, 3E-(2,4-Dimethoxy-5-thiophen-2-yl-phenyl)-1-[4-(2H-tetrazol-5-yl)-phenyl]-propenone], the melting point is 235 °C (dec.). In the data set with VCAM-1, this compound registered an IC50 of less than 10 µM.
Regarding `Nc1ccc(C(=O)/C=C/c2ccc(-c3cccs3)cc2)cc1` [Example 12, 1-(4-Amino-phenyl)-3E-(4-thiophen-2-yl-phenyl)-propenone], the melting point lay within 185 to 187 °C. The compound further gave an IC50 with VCAM-1 of less than 5 µM.
In the same order, the values of `O=C(O)c1ccc(C(=O)/C=C/c2ccc(-c3cncnc3)cc2)cc1` [Example 4, 4-[3E-(4-Pyrimidin-5-yl-phenyl)-acryloyl]-benzoic acid] are more than 260 °C and less than 10 µM.
`COc1cc(OC)c(-c2cncnc2)cc1/C=C/C(=O)c1ccc(C(=O)O)cc1` [Example 31, 4-[3E-(2,4-Dimethoxy-5-pyrimidin-5-yl-phenyl)-acryloyl]-benzoic acid]: the melting point was more than 260 °C. The IC50 in the data set on VCAM-1 was more than 10 µM.
Consider `COc1cc(/C=C/C(=O)c2ccc(NS(C)(=O)=O)cc2)cc(-c2cccs2)c1OC` [Example 14, N-{4-[3E-(3,4-Dimethoxy-5-thiophen-2-yl-phenyl)-acryloyl]-phenyl}-methanesulfonamide], for which the melting point lay within 71 to 75 °C. This compound yielded an IC50 with VCAM-1 of less than 1 µM.
Compound `COc1cc(/C=C/C(=O)c2ccc3c(c2)OC(CO)(CO)O3)cc(-c2cccs2)c1OC` [Example 1, 1-(2,2-Bis-hydroxymethyl-benzo[1,3]dioxol-5-yl)-3E-(3,4-dimethoxy-5-thiophen-2-yl-phenyl)-propenone] yielded a melting point of 74 to 80 °C. Also, the IC50 with VCAM-1 is less than 1 µM.
In the case of `COc1cc(OC)c(-c2nc3cccnc3[nH]2)cc1/C=C/C(=O)c1ccc(C(=O)O)cc1` [Example 76, 4-{3E-[5-(3H-Imidazo[4,5-b]pyridin-2-yl)-2,4-dimethoxy-phenyl]-acryloyl}-benzoic acid], the melting point is 222 to 224 °C. In the data set with VCAM-1, this compound gave an IC50 of more than 10 µM.
In the case of `COc1cc(OC)c(-c2cc3ccccc3s2)cc1/C=C/C(=O)c1ccc(C(C)=O)cc1` [Example 108, 1-(4-Acetyl-phenyl)-3E-(5-benzo[b]thiophen-2-yl-2,4-dimethoxy-phenyl)-propenone], the melting point was in the range of 165 to 167 °C. In the data set on VCAM-1, this compound returned an IC50 of less than 10 µM.
Take `COc1cc(OC)c(-c2cnccn2)cc1/C=C/C(=O)c1ccc(C(=O)O)cc1` [Example 46, 4-[3E-(2,4-Dimethoxy-5-pyrazin-2-yl-phenyl)-acryloyl]-benzoic acid]: the melting point is 238 °C (dec.). The compound further had an IC50 in the data set with VCAM-1 of less than 10 µM.
Regarding `COc1cc(OC)c(-c2cc3ccccc3n2C(=O)OC(C)(C)C)cc1/C=C/C(=O)c1ccc(S(N)(=O)=O)cc1` [Example 83, 2-{2,4-Dimethoxy-5-[3-oxo-3-(4-aminosulfonyl-phenyl)-E-propenyl]-phenyl}-indole-1-carboxylic acid tert-butyl ester], the melting point was in the range of 120 to 122 °C. In the data set with VCAM-1, this compound yielded an IC50 of less than 1 µM.
